Data taken from patent publication US9481648B2, “Kinase inhibitors” (Respivert Limited, priority 2013, dated 2016).
Like-named read-outs stand apart in the source and are kept apart here.

Columns and labels:
Lck = Lck (Homo sapiens (Human), UniProt P06239); assay: KINOMEscan enzyme binding assay (dissociation constant)
Description: (§1) Kinase enzyme binding activities of compounds disclosed herein may be determined using a proprietary assay which measures active site-directed competition binding to an immobilized ligand (Fabian, M. A. et al., Nature Biotechnol., 2005, 23:329-336). These assays may be conducted by DiscoverX (formerly Ambit; San Diego, Calif.). The percentage inhibition produced by incubation with a test compound may be calculated relative to the non-inhibited control.

Syk = Syk (Homo sapiens (Human), UniProt P43405); assay: as above
Description: as §1

p38 MAPKα = p38 MAPKα (Homo sapiens (Human), UniProt Q16539); assay: as above
p38 MAPKα, sequence (Q16539 whole entry): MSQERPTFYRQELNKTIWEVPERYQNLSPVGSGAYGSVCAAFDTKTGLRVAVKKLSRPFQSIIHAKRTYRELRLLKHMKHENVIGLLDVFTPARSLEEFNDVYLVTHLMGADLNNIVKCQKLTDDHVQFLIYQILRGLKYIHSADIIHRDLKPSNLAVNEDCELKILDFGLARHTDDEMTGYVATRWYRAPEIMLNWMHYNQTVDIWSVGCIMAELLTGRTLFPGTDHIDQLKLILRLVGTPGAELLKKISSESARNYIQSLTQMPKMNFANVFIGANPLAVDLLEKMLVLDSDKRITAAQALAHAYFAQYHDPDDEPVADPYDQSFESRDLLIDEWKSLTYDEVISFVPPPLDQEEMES
Description: as §1

B-Raf = B-Raf (Homo sapiens (Human), UniProt P15056); assay: KINOMEscan binding of kinase to its standard ligand
B-Raf, sequence (P15056 whole entry): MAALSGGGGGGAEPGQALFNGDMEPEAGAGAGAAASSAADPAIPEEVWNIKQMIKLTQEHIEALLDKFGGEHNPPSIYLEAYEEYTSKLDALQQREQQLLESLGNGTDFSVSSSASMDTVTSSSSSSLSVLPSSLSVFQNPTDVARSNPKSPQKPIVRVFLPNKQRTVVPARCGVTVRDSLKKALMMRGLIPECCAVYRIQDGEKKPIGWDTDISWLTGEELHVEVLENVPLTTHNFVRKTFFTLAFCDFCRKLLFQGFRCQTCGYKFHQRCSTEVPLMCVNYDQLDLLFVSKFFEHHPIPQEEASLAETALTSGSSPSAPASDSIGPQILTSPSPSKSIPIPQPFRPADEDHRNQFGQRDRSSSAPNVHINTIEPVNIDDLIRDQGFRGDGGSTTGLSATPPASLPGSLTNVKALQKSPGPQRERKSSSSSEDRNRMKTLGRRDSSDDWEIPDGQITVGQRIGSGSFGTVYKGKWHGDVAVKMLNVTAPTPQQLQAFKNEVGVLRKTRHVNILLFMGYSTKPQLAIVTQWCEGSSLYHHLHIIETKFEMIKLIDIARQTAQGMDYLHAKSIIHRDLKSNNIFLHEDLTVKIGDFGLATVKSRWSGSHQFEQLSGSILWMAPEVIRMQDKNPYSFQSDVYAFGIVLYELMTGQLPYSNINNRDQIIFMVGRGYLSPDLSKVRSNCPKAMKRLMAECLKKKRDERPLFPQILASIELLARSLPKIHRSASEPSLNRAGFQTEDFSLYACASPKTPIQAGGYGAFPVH
Description: as §1

B-Raf (V600E) = B-Raf (V600E) (Homo sapiens (Human), UniProt P15056, V600E); assay: as above
B-Raf (V600E), sequence (P15056 whole entry V600E): as the sequence (P15056 whole entry) above, with V600E counted along it
Description: as §1

GSK 3α = GSK 3α (Homo sapiens (Human), UniProt P49840); assay: GSK 3α enzyme inhibition (FRET, Z-LYTE; Method 2); assay type: biochemical; settings: read-out: IC50 Values for Enzyme Inhibition GSK3α
GSK 3α, sequence (P49840 whole entry): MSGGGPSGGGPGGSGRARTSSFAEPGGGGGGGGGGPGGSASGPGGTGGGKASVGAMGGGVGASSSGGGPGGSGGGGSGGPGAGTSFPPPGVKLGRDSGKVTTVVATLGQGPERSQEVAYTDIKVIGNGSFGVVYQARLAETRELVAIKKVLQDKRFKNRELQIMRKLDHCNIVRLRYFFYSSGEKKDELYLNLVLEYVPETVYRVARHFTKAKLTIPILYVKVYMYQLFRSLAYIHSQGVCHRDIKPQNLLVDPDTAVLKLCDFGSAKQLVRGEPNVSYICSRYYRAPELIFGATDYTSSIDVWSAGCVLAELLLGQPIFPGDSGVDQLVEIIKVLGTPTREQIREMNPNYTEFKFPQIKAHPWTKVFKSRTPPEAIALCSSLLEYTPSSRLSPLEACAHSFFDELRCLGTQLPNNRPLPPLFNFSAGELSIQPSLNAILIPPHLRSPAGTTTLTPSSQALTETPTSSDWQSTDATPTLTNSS
Procedure, shortened: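 Phosphorylation was taken from the donor (coumarin) to acceptor (fluorescein) emission ratio after 1 h protease development, which cleaves only unphosphorylated peptide. Before that, peptide (8 μM stock) plus ATP (40 μM stock) reacted 1 h. This followed a 105 min RT preincubation of GSK3-α with compound stocks of 10–0.01 μg/mL.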

[1] = system: TNBS-induced colitis in BDF1 mice; assay: TNBS-induced colitis in mice (in vivo iv); parameters: species or system mouse
Description: Non-fasted, 10-12 week old, male BDF1 mice are dosed by oral gavage twice daily with either vehicle (5 mL/kg), reference item (Budesonide 2.5 mg/kg) or test compound (1 or 5 mg/kg) one day before (Day −1) stimulation of the inflammatory response by treatment with 2,4,6-trinitrobenzenesulphonic acid (TNBS) (15 mg/mL in 50% ethanol/50% saline). On Day 0 of the study TNBS (200 μL) is administered intra-colonically via a plastic catheter with BID dosing of the vehicle, reference or test compound continuing for 2 or 4 days. During the study, animals are weighed every day and stool observations are made and recorded as a score, based on stool consistency. At the time of sacrifice on Day 2 (or Day 4), the large intestine is removed and the length and weight recorded. Sections of the colon are taken for histopathology scoring to determine disease severity.

[2] = system: adoptive transfer (CD45RBhigh cells) colitis in SCID mice; assay: Adoptive transfer in mice (in vivo v); parameters: species or system mouse
Description: On Study day 0, female Balb/C mice are terminated and spleens obtained for CD45RB^high cell isolation (Using SCID IBD cell Separation protocol). Approximately 4×10^5 cells/mL CD45RB^high cells are then injected intraperitoneally (100 μL/mouse) into female SCID animals. On study day 14, mice are weighed and randomized into treatment groups based on body weight. On Day 14, compounds are administered BID, via oral gavage, in a peanut oil vehicle at the dose levels outlined below in Tables 6a and 6b and a dose volume of 5 mL/kg. Treatment continues until study day 42, at which point the animals are necropsied 4 hours after the morning administration. The colon length and weight are recorded and used as a secondary endpoint in the study as a measurement of colon oedema. The colon is then divided into six cross-sections, four of which are used for histopathology scoring (primary endpoint) and two are homogenised for cytokine analysis. Data shown is the % inhibition of the induction window between naïve animals and vehicle animals, where higher inhibition implies closer to the non-diseased, naïve, phenotype.

[3] = Human hepatocyte stability test; assay type: in vitro ADME; settings: human hepatocytes
Description: (§2) Assessment of certain in vitro ADME (absorption, distribution, metabolism, and excretion) parameters for certain compounds of the invention was conducted by BioFocus (Saffron Walden, UK).

CYP3A4 = CYP3A4 (Homo sapiens (Human), UniProt P08684); assay: CYP3A4 inhibition study; assay type: in vitro ADME; settings: for inhibition at 15 µM: human, read-out: 15 μM % Inh
CYP3A4, sequence (P08684 whole entry): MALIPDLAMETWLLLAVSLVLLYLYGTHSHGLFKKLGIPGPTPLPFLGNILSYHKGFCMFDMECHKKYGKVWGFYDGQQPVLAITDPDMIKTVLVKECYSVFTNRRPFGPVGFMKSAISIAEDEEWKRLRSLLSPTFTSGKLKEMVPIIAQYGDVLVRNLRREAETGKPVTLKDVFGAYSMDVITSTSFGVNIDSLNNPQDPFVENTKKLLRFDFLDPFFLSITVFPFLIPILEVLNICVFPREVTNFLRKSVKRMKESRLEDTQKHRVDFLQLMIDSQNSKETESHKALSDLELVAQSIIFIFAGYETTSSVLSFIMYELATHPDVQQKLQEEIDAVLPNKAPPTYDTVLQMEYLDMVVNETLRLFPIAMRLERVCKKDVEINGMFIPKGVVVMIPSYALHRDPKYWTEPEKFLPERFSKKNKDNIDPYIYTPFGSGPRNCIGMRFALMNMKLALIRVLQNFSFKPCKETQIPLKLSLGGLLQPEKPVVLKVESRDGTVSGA
Description: as §2

[4] = system: Salmonella typhimurium strain TA100; assay: Mutagenicity assessment (bacterial reverse mutation screen); assay type: cell-based; settings: strain TA100, presence or absence of S-9 mix, up to 1000 μg/plate analysable
Description: (§3) Studies were conducted by Sequani (Ledbury, Herefordshire, UK) to assess compounds of the invention for their ability to induce mutations in two histidine dependent auxotrophic mutants of Salmonella typhimurium, strains TA98 and TA100 in vitro.
(§4) The mutation screen was conducted using the plate incorporation method and was performed in both the presence and absence of S-9 mix (a liver post-mitochondrial fraction derived from the livers of Aroclor 1254 treated rats). The bacteria were exposed to test compounds dissolved in dimethylsulphoxide, which solvent was also used as the negative control. The dose levels used were 0.32, 1.6, 8, 40, 200, 1000 or 5000 μg/plate.
(§5) Precipitation was also noted in both strains at 1000 μg/plate in the presence and absence of S-9 mix.

[5] = system: Salmonella typhimurium strain TA98; assay: as above; assay type: cell-based; settings: strain TA98, presence or absence of S-9 mix, up to 1000 μg/plate analysable
Description: as §3, §4, §5

[6] = 5 mg/kg orally, TNBS-induced colitis, mice, 2 days
[7] = TNBS-induced colitis in mice, 5 mg/kg oral
[8] = 3 mg/kg, adoptive transfer mouse model

Lck, sequence (P06239 whole entry): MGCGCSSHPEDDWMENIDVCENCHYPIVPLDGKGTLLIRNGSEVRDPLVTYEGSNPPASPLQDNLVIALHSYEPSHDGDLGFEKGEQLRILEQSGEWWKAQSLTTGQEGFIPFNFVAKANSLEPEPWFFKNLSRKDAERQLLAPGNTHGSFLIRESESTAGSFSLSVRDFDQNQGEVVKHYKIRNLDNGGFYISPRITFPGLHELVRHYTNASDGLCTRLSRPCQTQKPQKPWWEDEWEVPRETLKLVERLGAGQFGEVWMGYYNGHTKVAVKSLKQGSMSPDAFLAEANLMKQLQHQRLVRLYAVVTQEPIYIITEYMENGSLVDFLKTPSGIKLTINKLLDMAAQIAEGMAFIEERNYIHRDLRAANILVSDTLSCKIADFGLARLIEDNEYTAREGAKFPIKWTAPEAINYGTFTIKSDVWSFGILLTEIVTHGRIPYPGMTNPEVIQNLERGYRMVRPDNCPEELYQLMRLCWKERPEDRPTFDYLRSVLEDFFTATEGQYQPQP

## COc1cc(Nc2cc(Oc3ccc(NC(=O)Nc4cc(C(C)(C)C)cc(NS(C)(=O)=O)c4OC)c4ccccc34)ccn2)cc(C(=O)NCCN2CCOCC2)c1 [Example 27]
Lck
  Kd: 4.3 nM
Syk
  Kd: 27 nM
p38 MAPKα
  Kd: 29 nM
B-Raf
  effect on the binding of the kinase B-Raf to its standard ligand: did not have any significant effect
B-Raf (V600E)
  effect on the binding of the kinase B-Raf (V600E) to its standard ligand: did not have any significant effect
GSK 3α
  IC50: 4500 nM
[1]; [6]
  inflammatory cell infiltrate in the reticular and laminar propria zones: marked reduction
  ulcer grade and epithelial repair compared to the vehicle control: marked improvements
[1]; [7]
  LP inflammation: 3.2 ± 0.4
  Ulcer grade: 3.3 ± 0.5
[1]; TNBS-induced colitis, mice, conducted over 2 days
  activity in in vivo model of colonic inflammation (histopathology analysis): substantial activity
[2]; 3 mg/kg BID oral gavage, adoptive transfer mouse model
  Colon weight:length: 0.022 ± 0.002
[2]; 3 mg/kg BID oral gavage, colon weight:length
  % Inhibition (of the induction window between naïve and vehicle animals): 99%
[2]; [8]
  IFNγ level in colon tissue: 19.1 ± 6.5 pg/mL
  IL-8 level in colon tissue: 131.1 ± 56.1 pg/mL
[2]; adoptive transfer mouse model
  levels of pro-inflammatory cytokines in samples of colon tissue: significantly reduced
[2]; adoptive transfer mouse model, 0.03 mg/kg BID oral
  Colon weight:length: 0.047 ± 0.005
[2]; adoptive transfer mouse model, 0.3 mg/kg BID oral
  Colon weight:length: 0.038 ± 0.004
[2]; adoptive transfer mouse model, 3 mg/kg BID oral
  Colon weight:length: 0.034 ± 0.003
[3]
  half-life: 1.6 h
[3]; read-out: Mean intrinsic clearance
  hepatocyte CLint: 15 µL/min/1e6 cells
CYP3A4; CYP3A4, 0 min preincubation
  IC50: > 15000 nM
  inhibition at 15 µM: 19%
CYP3A4; CYP3A4, 30 min preincubation
  IC50: 8900 nM
  inhibition at 15 µM: 57%
[4]
  increases in revertant colonies: no dose-related or statistically significant increases
[5]
  increases in revertant colonies: no dose-related or statistically significant increases
